Test: recombinant barcode read abundance after kanamycin selection (control-corrected) (log10(CPM+1)); higher = more efficient recombination; sequences stand for … in AGTGCAGAGAAAATCGGCCAGTTTTCTCTGCCTGCAGTCCGCATGCCGT…AGATTTATGCAGCGGACTGCCTTTCTCCCAAAGTGATAAACCGGACAGTATCATGGACCGGTTTTCCCGGTAATCCGTATTTGCAAGGTTGGTTTCACT; site = the 11-nt target
Method in brief: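 Recombination efficiency in this pooled E. coli screen uses counts per million of barcodes at recombinant junctions, averaged and corrected against the control. The reported form is log10(CPM+1). Two replicates were plated on chloramphenicol/ampicillin LB agar as control and two on chloramphenicol/ampicillin/kanamycin with 0.1 mM IPTG.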
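Note: IS621 recombinase and bridge RNA in Escherichia coli cells.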

Sequence | recombinant barcode read abundance (log10)
TAACCTGCTTGGGTTCTAACCTGTTGCCT (site TAACCTCCTAG) | 0.0336
TAACCTGCTTGGGTTCTAACCTGTTGCCT (site TAACCTGCTAG) | 0.889
TAACCTGCTTGGGTTCTAACCTGTTGCCT (site TAACCTTCTAG) | 0.624
TAACCTTCTTGGGTTCTAACCTGTTGCCT (site TAACCTACTAG) | 0
TAACCTTCTTGGGTTCTAACCTGTTGCCT (site TAACCTCCTAG) | 0.019
TAACCTTCTTGGGTTCTAACCTGTTGCCT (site TAACCTGCTAG) | 0.00987
TAACCTTCTTGGGTTCTAACCTGTTGCCT (site TAACCTTCTAG) | 0.472
TAAGACCCTTGGGTTCTAACCTGTTGCCT (site TAAGACCCTAG) | 2.33
TAAGACCCTTGGGTTCTAACCTGTTGCCT (site TCAGACCCTAG) | 0.454
TAAGACGCTTGGGTTCTAACCTGTTGCCT (site TAAGACGCTAG) | 2.33
TAAGACGCTTGGGTTCTAACCTGTTGCCT (site TACGACGCTAG) | 0.0565
TAAGACGCTTGGGTTCTAACCTGTTGCCT (site TAGGACGCTAG) | 0.729
TAAGACGCTTGGGTTCTAACCTGTTGCCT (site TATGACGCTAG) | 1.05
TAAGGTCCTTGGGTTCTAACCTGTTGCTT (site AGGTCAACTCG) | 0.224
TAAGGTCCTTGGGTTCTAACCTGTTGCTT (site TAAGGTCCTAA) | 1.49
TAAGTACCTTGGGTTCTAACCTGTTGCCT (site AAAGTACCTAG) | 1.12
TAAGTACCTTGGGTTCTAACCTGTTGCCT (site CAAGTACCTAG) | 0.517
TAAGTACCTTGGGTTCTAACCTGTTGCCT (site GAAGTACCTAG) | 0.029
TAAGTACCTTGGGTTCTAACCTGTTGCCT (site TAAGTACCTAG) | 1.88
TAATATTCTTGGGTTCTAACCTGTTGCCT (site TAATATTCTAG) | 0.0128
TAATATTCTTGGGTTCTAACCTGTTGCCT (site TAGGATTCTAG) | 0.041
TAATCCTCTTGGGTTCTAACCTGTTGCCT (site AAATCCTCTAG) | 0.984

Sequence | recombinant barcode read abundance (log10)
TAATCCTCTTGGGTTCTAACCTGTTGCCT (site CAATCCTCTAG) | 0.0292
TAATCCTCTTGGGTTCTAACCTGTTGCCT (site GAATCCTCTAG) | 0.0754
TAATCCTCTTGGGTTCTAACCTGTTGCCT (site TAATCCTCTAG) | 1.3
TAATCGACTTGGGTTCTAACCTGTTGCCT (site TAATCGACTAG) | 0.102
TAATCGACTTGGGTTCTAACCTGTTGCCT (site TAATCGCCTAG) | 0.643
TAATCGACTTGGGTTCTAACCTGTTGCCT (site TAATCGGCTAG) | 0
TAATCGACTTGGGTTCTAACCTGTTGCCT (site TAATCGTCTAG) | 0.0431
TAATGGCCTTGGGTTCTAACCTGTTGCGA (site ATGAACACTCA) | 0.0388
TAATGGCCTTGGGTTCTAACCTGTTGCGA (site TAATGGCCTTC) | 0.942
TAATGTACTTGGGTTCTAACCTGTTGCCT (site TAATGAACTAG) | 0.125
TAATGTACTTGGGTTCTAACCTGTTGCCT (site TAATGTACTAG) | 0.556
TAATTAGCTTGGGTTCTAACCTGTTGCCT (site TAAATAGCTAG) | 0.0142
TAATTAGCTTGGGTTCTAACCTGTTGCCT (site TAATTAGCTAG) | 0.435
TACAAGACTTGGGTTCTAACCTGTTGCGT (site GGACCCTCTGT) | 0.168
TACAAGACTTGGGTTCTAACCTGTTGCGT (site TACAAGACTAC) | 1.36
TACAAGTCTTGGGTTCTAACCTGTTGCCT (site CTACGACCTCC) | 0.289
TACAAGTCTTGGGTTCTAACCTGTTGCCT (site TACAAGTCTAG) | 0.625
TACAGACCTTGGGTTCTAACCTGTTGCCT (site AACAGACCTAG) | 0.11
TACAGACCTTGGGTTCTAACCTGTTGCCT (site CACAGACCTAG) | 0.197
TACAGACCTTGGGTTCTAACCTGTTGCCT (site GACAGACCTAG) | 0.065
TACAGACCTTGGGTTCTAACCTGTTGCCT (site TACAGACCTAG) | 1.11
TACAGCTCTTGGGTTCTAACCTGTTGCTT (site TACAGCTCTAA) | 0.016

Sequence | recombinant barcode read abundance (log10)
TACAGCTCTTGGGTTCTAACCTGTTGCTT (site TACCGCTCTAA) | 0.104
TACAGCTCTTGGGTTCTAACCTGTTGCTT (site TACGGCTCTAA) | 0.0374
TACAGCTCTTGGGTTCTAACCTGTTGCTT (site TACTGCTCTAA) | 0.107
TACATCCCTTGGGTTCTAACCTGTTGCCC (site TACATCCCTAG) | 0.41
TACATCCCTTGGGTTCTAACCTGTTGCCC (site TACATCCCTCG) | 0.111
TACATCCCTTGGGTTCTAACCTGTTGCCC (site TACATCCCTGG) | 0.646
TACATCCCTTGGGTTCTAACCTGTTGCCC (site TACATCCCTTG) | 0.0347
TACCATTCTTGGGTTCTAACCTGTTGCTT (site TACAGTTCTAA) | 0.0331
TACCATTCTTGGGTTCTAACCTGTTGCTT (site TACCATTCTAA) | 0.239
TACCCACCTTGGGTTCTAACCTGTTGCCT (site AACCCACCTAG) | 0.295
TACCCACCTTGGGTTCTAACCTGTTGCCT (site CACCCACCTAG) | 0.169
TACCCACCTTGGGTTCTAACCTGTTGCCT (site GACCCACCTAG) | 0.262
TACCCACCTTGGGTTCTAACCTGTTGCCT (site TACCCACCTAG) | 1.47
TACCCATCTTGGGTTCTAACCTGTTGCCT (site TAACCATCTAG) | 0.0921
TACCCATCTTGGGTTCTAACCTGTTGCCT (site TACCCATCTAG) | 0.862
TACCCATCTTGGGTTCTAACCTGTTGCCT (site TAGCCATCTAG) | 0.106
TACCCATCTTGGGTTCTAACCTGTTGCCT (site TATCCATCTAG) | 0.0366
TACCCGACTTGGGTTCTAACCTGTTGCCT (site TACCAGACTAG) | 0.0911
TACCCGACTTGGGTTCTAACCTGTTGCCT (site TACCCGACTAG) | 1.41
TACCCGACTTGGGTTCTAACCTGTTGCCT (site TACCGGACTAG) | 0.178
TACCCGACTTGGGTTCTAACCTGTTGCCT (site TACCTGACTAG) | 0.00741
TACCCGCCTTGGGTTCTAACCTGTTGCCT (site TACCCGCCTAG) | 0.838

Sequence | recombinant barcode read abundance (log10)
TACCCGCCTTGGGTTCTAACCTGTTGCCT (site TCCCCGGCTAG) | 0.206
TACCCTACTTGGGTTCTAACCTGTTGCAT (site TACACTACTAT) | 0.0106
TACCCTACTTGGGTTCTAACCTGTTGCAT (site TACCCTACTAT) | 0.654
TACCGCCCTTGGGTTCTAACCTGTTGCGT (site GGAAAGACTGT) | 0.166
TACCGCCCTTGGGTTCTAACCTGTTGCGT (site TACCGCCCTAC) | 1.95
TACCGGACTTGGGTTCTAACCTGTTGCGT (site TACCGGACTAC) | 2.13
TACCGGACTTGGGTTCTAACCTGTTGCGT (site TACCGGCCTAA) | 0.0831
TACCGTTCTTGGGTTCTAACCTGTTGCCT (site TAACGTTCTAG) | 0
TACCGTTCTTGGGTTCTAACCTGTTGCCT (site TACCGTTCTAG) | 0.41
TACGAATCTTGGGTTCTAACCTGTTGCCG (site TACGAATCTAG) | 0.235
TACGAATCTTGGGTTCTAACCTGTTGCCG (site TACGAATCTCG) | 0.465
TACGAGGCTTGGGTTCTAACCTGTTGCCT (site TACGAGGCTAG) | 0.406
TACGAGGCTTGGGTTCTAACCTGTTGCCT (site TACGCGGCTAG) | 0.0314
TACGAGGCTTGGGTTCTAACCTGTTGCCT (site TACGGGGCTAG) | 0.0616
TACGAGGCTTGGGTTCTAACCTGTTGCCT (site TACGTGGCTAG) | 0.0666
TACGCTCCTTGGGTTCTAACCTGTTGCAT (site TACGCTCCTAA) | 0.053
TACGCTCCTTGGGTTCTAACCTGTTGCAT (site TACGCTCCTAC) | 0.0178
TACGCTCCTTGGGTTCTAACCTGTTGCAT (site TACGCTCCTAG) | 0.284
TACGCTCCTTGGGTTCTAACCTGTTGCAT (site TACGCTCCTAT) | 0.785
TACGCTCCTTGGGTTCTAACCTGTTGCTT (site TACGCTCCTAA) | 0.243

Reference: the supplement of paper PMC11208160
